“And” between values parts separate entries of the source, which are not always exact repeats. Identical values can stand only once. Like-named read-outs stand apart in the source and are kept apart here.
Assays:
Format in all cases: cell-based
HeLa cells = test: In vitro cytotoxicity assay (resazurin)
Method: (§1) As previously described, HeLa cells (Cellonex, Johannesburg, South Africa) were seeded in 96-well plates at a density of 2 × 10^4 cells/well in Dulbecco’s modified Eagle’s medium (DMEM) (Lonza, Basel, Switzerland) supplemented with 10% fetal calf serum and antibiotics (penicillin/streptomycin/amphotericin B) and incubated overnight at 37 °C in a 5% CO2 incubator. Compounds were added to the cells at a final concentration of 20 µM, and incubation continued for 24 h. The cell viability in the wells was assessed by adding 20 µL of resazurin reagent (0.135 mg/mL resazurin in phosphate-buffered saline) and reading the fluorescence (Ex560/Em590) after an additional 2–4 h incubation. The fluorescence readings were converted to % cell viability relative to the average readings obtained from the untreated control wells.
(§2) Thirty-five tetralone derivatives (see Figure 2) and six related benzocycloalkanones (see Figure 3) were evaluated in vitro against T. b. brucei for antitrypanosomal activity through the resazurin assay protocol. The compounds were also evaluated against the chloroquine-sensitive strain (3D7) of P. falciparum for antimalarial activity using pLDH assay and against the HeLa cell line for cytotoxicity evaluation using the resazurin assay protocol.

[1] = system: chloroquine sensitive strain of P. falciparum (3D7); test: In vitro antiplasmodial assay (parasite lactate dehydrogenase, pLDH); settings: for viability at 20 µM: Plasmodium falciparum, 3D7, 48 h, read-out: % Viability at 20 µM (SD) 3D7
Method: An antimalarial evaluation was performed against the chloroquine sensitive strain of P. falciparum (3D7) using the parasite lactate dehydrogenase (pLDH) assay as previously reported. Parasites were seeded at 2% parasitemia and 1% hematocrit in 96 well plates and were incubated with 20 µM of the test compounds for 48 h in culture medium consisting of Rosell Park Memorial Institute (RPMI 1640; Lonza, Basel, Switzerland) containing 25 mM 4-(2-hydroxyethyl)-1-piperazineethanesulfonic acid (HEPES), supplemented with 0.5% (w/v) Albumax II, 22 mM glucose, 0.65 mM hypoxanthine, 0.05mg/mL gentamicin, and 1% (v/v) human erythrocytes, at 37 °C under an atmosphere of 5% CO2, 5% O2, and 90% N2. The parasite lactate dehydrogenase activity in the wells was determined using the colorimetric assay method of Makler et al.. The absorbance readings were converted to % parasite viability relative to the wells containing untreated parasites.
as §2

[2] = system: 427 Trypanosoma brucei brucei trypomastigotes; test: In vitro anti-trypanosomal assay (resazurin); settings: 48 h; for % Viability at 20 µM (SD) T.b. brucei / viability at 20 µM: 20 µM compound, % parasite viability relative to untreated control; for IC50: three-fold serial dilutions from 100 µM, read-out: IC50 (µM) T. b. brucei; for viability at 20 µM: read-out: % Viability at 20 µM (SD) T.b. brucei
Method: The activity of the compounds against 427 Trypanosoma brucei brucei trypomastigotes was determined as previously described. Briefly, parasites were incubated in 96-well plates with 20 µM or three-fold serial dilutions (100 µM starting concentration) of test compounds in Iscove’s modified Dulbecco’s medium (IMDM) (Lonza, Basel, Switzerland) supplemented with 10% fetal calf serum, HMI-9 supplement, hypoxanthine, and penicillin/streptomycin at 37 °C in a 5% CO2 incubator. After 48 h, 20 µL of resazurin reagent (0.135 mg/mL resazurin in phosphate-buffered saline) was added to each well and the fluorescence (Ex560/Em590) read after 2–4 h in a Spectramax M3 plate reader (Molecular Devices, San Jose, CA, USA). The fluorescence readings were used to calculate % parasite viability relative to the readings obtained from the wells containing untreated control parasite cultures. The IC50 values were determined by plotting % viability vs. log(compound) and performing a non-linear regression using a GraphPad Prism (v. 5.02) (San Diego, CA, USA).
as §2

[3] = In vitro cytotoxicity assay (resazurin); settings: human, 20 µM compound, 24 h, % cell viability relative to untreated control, read-out: % Viability at 20 µM (SD) HeLa Cell
Method: as §1, §2

[4] = 20 µM compound, 24 h, % cell viability relative to untreated control
[5] = 20 µM compound, 48 h, P. falciparum 3D7, % parasite viability relative to untreated parasites

SMILES	% Viability at 20 µM (SD) HeLa Cell (HeLa cells; [4])	% Viability at 20 µM (SD) 3D7 ([1]; 20 µM)	% Viability at 20 µM (SD) T.b. brucei [2]	also measured
O=C1/C(=C/c2ccc(F)cc2)CCc2ccccc21 [Compound 5]	100 (2) %	107 (5) %		
COc1ccc2c(c1)C(=O)/C(=C/c1ccco1)CC2 [Compound 28]	97 (9) %	100 (3) %	31 (5) %	
O=c1c(Cc2ccc(Cl)cc2)coc2ccccc12 [Compound 40]	103 (3) %	90 (6) %		% Viability at 20 µM (SD) T.b. brucei ([2]; 20 µM): 94 (7) %
O=C1/C(=C/c2cccnc2)CCc2ccccc21 [Compound 25]	24 (0.4) %	29 (12) %	−0.7 (0.4) %	
O=C1/C(=C/c2ccc(Cl)cc2)COc2ccccc21 [Compound 38]				% Viability at 20 µM (SD) T.b. brucei ([2]; 20 µM): 0.4 (0.2) %; IC50 ([2]; Trypanosoma brucei): 0.4 µM; viability at 24 h, 20 µM [3]: 75%; viability at 20 µM [1]: 98%
Cc1ccc(/C=C2\CCc3ccc(O)cc3C2=O)cc1 [Compound 20]				viability at 20 µM ([2]; Trypanosoma brucei): -0.4%; IC50 ([2]; Trypanosoma brucei): 5.3 µM; viability at 24 h, 20 µM ([3]; HeLa cells): 69%; viability at 20 µM [1, 5]: 116%
O=C1/C(=C/c2cccc(Cl)c2)CCc2ccc(O)cc21 [Compound 15]	18 (0.4) %	−3 (6) %	0.6 (0.01) %	
COc1ccc2c(c1)C(=O)/C(=C/c1cccnc1Cl)CC2 [Compound 34]	47 (1.7) %	113 (6) %	98 (2) %	
O=C1/C(=C/c2cccc(F)c2)CCc2ccc(O)cc21 [Compound 13]	21 (1) %	13 (1) %	−0.9 (0.1) %	
COc1ccc2c(c1)C(=O)/C(=C/C1CCCC1)CC2 [Compound 27]				viability at 20 µM ([2]; Trypanosoma brucei): < 1%; IC50 ([2]; Trypanosoma brucei): 5.4 µM; viability at 24 h, 20 µM ([3]; HeLa cells): 85%; viability at 20 µM [1, 5]: 81%
O=C1/C(=C/c2cccc(Cl)c2)CCc2ccccc21 [Compound 17]	41 (13) %	100 (9) %	0.2 (0.3) %	
COc1ccc2c(c1)C(=O)/C(=C/c1cccnc1)CC2 [Compound 31]	17 (4) %	85 (12) %		
O=C1/C(=C/c2ccccc2)CCc2cc(O)ccc21 [Compound 7]				% Viability at 20 µM (SD) T.b. brucei ([2]; 20 µM): 0.6 (0.2) %; viability at 20 µM ([2]; Trypanosoma brucei): 0.66%; IC50 ([2]; Trypanosoma brucei): 0.4 µM; IC50 [2]: 0.46 µM; viability at 24 h, 20 µM ([3]; HeLa cells): 54%; viability at 20 µM [1, 5]: 89%
O=C1/C(=C/c2ccc(Br)cc2)CCc2ccc(O)cc21 [Compound 16]				viability at 20 µM ([2]; Trypanosoma brucei): 0.1%; IC50 ([2]; Trypanosoma brucei): 1.24 µM; viability at 24 h, 20 µM ([3]; HeLa cells): 62%; viability at 20 µM [1, 5]: 43%
O=C1/C(=C/c2ccccc2)CCc2ccccc21 [Compound 3]			43 (3) %	% Viability at 20 µM (SD) HeLa Cell (HeLa cells; 20 µM): 116 (5) %; % Viability at 20 µM (SD) 3D7 [1, 5]: 103 (2) %
O=C1/C(=C/c2ccc(Cl)c(Cl)c2)CCc2ccc(O)cc21 [Compound 22]	5 (0.9) %	81 (1) %	0.9 (0.2) %	
COc1ccc2c(c1)C(=O)/C(=C/c1cccs1)CC2 [Compound 30]	106 (2) %	107 (6) %	32 (9) %	
N#Cc1cccc(/C=C2\CCc3ccccc3C2=O)c1 [Compound 1]				viability at 20 µM ([2]; Trypanosoma brucei): 0.06%; IC50 ([2]; Trypanosoma brucei): 2.3 µM; viability at 24 h, 20 µM ([3]; HeLa cells): 87%; viability at 20 µM [1, 5]: 113%

SMILES	% Viability at 20 µM (SD) HeLa Cell (HeLa cells; [4])	% Viability at 20 µM (SD) 3D7 ([1]; 20 µM)	% Viability at 20 µM (SD) T.b. brucei [2]	also measured
COc1ccc2c(c1)C(=O)/C(=C/c1ccc[nH]1)CC2 [Compound 29]	97 (5) %	115 (5) %	103 (1) %	
COc1ccc2c(c1)C(=O)/C(=C/c1ccccn1)CC2 [Compound 33]	20 (0.6) %	7 (8) %	−0.4 (0.2) %	
N#Cc1cccc(/C=C2\CCc3ccc(N)cc3C2=O)c1 [Compound 2]	77 (2) %	110 (1) %	95 (3) %	
O=C1/C(=C/c2ccccc2)CCc2c(O)cccc21 [Compound 8]	35 (1) %		0.5 (0.1) %	
O=C1/C(=C/c2cccc(Br)c2)CCc2ccc(O)cc21 [Compound 18]	26 (3) %	99 (8) %	1.2 (0.31) %	
O=C1/C(=C/c2ccc(Cl)cc2)CCc2ccc(O)cc21 [Compound 14]	27 (2) %		0.1 (0.1) %	
O=C1/C(=C/c2ccc(Cl)cc2)CCCc2ccccc21 [Compound 37]	53 (10) %	113 (0.6) %		% Viability at 20 µM (SD) T.b. brucei ([2]; 20 µM): 0.3 (0.3) %
O=C1/C(=C/c2ccc(Cl)cc2)Cc2ccccc21 [Compound 36]	74 (10) %	93 (3) %		% Viability at 20 µM (SD) T.b. brucei ([2]; 20 µM): 99 (0.1) %
O=C1/C(=C/c2ccc(Cl)cc2)CSc2ccccc21 [Compound 39]	8 (2) %	11 (0.9) %		% Viability at 20 µM (SD) T.b. brucei ([2]; 20 µM): 0.3 (0.3) %
CN(C)c1ccc(/C=C2\CCc3ccc(O)cc3C2=O)cc1 [Compound 21]	51 (4) %	142 (9) %	25 (2) %	
O=C1/C(=C/c2ccc(F)cc2)CCc2ccc(O)cc21 [Compound 12]				viability at 20 µM ([2]; Trypanosoma brucei): -0.6%; IC50 ([2]; Trypanosoma brucei): 0.6 µM; IC50 [2]: 0.68 µM; viability at 24 h, 20 µM ([3]; HeLa cells): 29%
COc1ccc(/C=C2\CCc3ccc(O)cc3C2=O)cc1 [Compound 23]	25 (2) %	88 (10) %	0.2 (0.1) %	
O=C1/C(=C/c2ccccc2)CCc2ccc(O)cc21 [Compound 9]	9 (0.1) %	101 (4) %	−4 (0.3) %	
O=C1/C(=C/c2ccc(Cl)cc2)CCc2ccccc21 [Compound 24]	100 (3) %	100 (8) %	26 (8) %	
O=C1/C(=C/c2ccc(O)cc2)CCc2ccc(O)cc21 [Compound 19]	44 (4) %	104 (12) %	1 (0.2) %	
Nc1ccc2c(c1)CC/C(=C\c1ccccc1)C2=O [Compound 11]	86 (9) %	111 (1) %		% Viability at 20 µM (SD) T.b. brucei ([2]; 20 µM): 95% and 97 (0.3) %
N=C(N)c1ccc(OCCCCCOc2ccc(C(=N)N)cc2)cc1 [PE, pentamidine, reference compound]				IC50 ([2]; Trypanosoma brucei): 0.0042 µM
O=c1c(Cc2ccc(Cl)cc2)csc2ccccc12 [Compound 41]	109 (7) %	107 (5) %		% Viability at 20 µM (SD) T.b. brucei ([2]; 20 µM): 103 (0.3) %

Source: paper PMC6572618, “Anti-Trypanosomal and Antimalarial Properties of Tetralone Derivatives and Structurally Related Benzocycloalkanones” (Medicina, 2019)
